In ChEMBL document CHEMBL1131447 (J Med Chem, 1998):

Assays:
[1] = biological target: T1, 5-hydroxytryptamine receptor 2A (Rattus norvegicus, UniProt P14842)
[2] = system: Rattus norvegicus; assay: In vivo antipsychotic activity measured by the induction of catalepsy in rats after po administration.; type: functional
[3] = system: Mus musculus; assay: In vivo antipsychotic activity measured by the inhibition of apomorphine-induced climbing behavior in mice after 30 min po administration.; type: functional; settings: 0.5 h
[4] = system: Rattus norvegicus; assay: In vivo antipsychotic activity measured by the induction of catalepsy in rats after po administration; type: functional
[5] = species: Mus musculus; assay: Inhibition of p-chloroamphetamine-induced hyperactivity in mice.; type: functional
[6] = biological target: T2, Alpha-1A adrenergic receptor (Rattus norvegicus, UniProt P43140)
T2 sequence (P43140 whole entry): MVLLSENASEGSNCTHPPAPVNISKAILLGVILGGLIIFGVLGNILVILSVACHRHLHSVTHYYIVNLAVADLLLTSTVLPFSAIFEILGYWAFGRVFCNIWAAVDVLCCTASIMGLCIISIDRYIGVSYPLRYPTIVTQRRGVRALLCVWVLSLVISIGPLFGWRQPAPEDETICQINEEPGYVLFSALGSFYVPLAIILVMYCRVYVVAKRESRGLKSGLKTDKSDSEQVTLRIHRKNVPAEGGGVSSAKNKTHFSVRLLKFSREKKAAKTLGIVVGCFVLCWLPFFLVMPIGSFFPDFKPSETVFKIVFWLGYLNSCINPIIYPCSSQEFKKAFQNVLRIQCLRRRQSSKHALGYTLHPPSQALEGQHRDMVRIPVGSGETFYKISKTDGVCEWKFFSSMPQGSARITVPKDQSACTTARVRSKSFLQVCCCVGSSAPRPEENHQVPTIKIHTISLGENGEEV
Description: Binding affinity measured at the Alpha-1A adrenergic receptor by the inhibition of [3H]prazosin binding to rat cortex using unlabeled WB-4101 for nonspecific binding.

[7] = biological target: D(3) dopamine receptor (Homo sapiens, UniProt P35462); assay: Binding affinity measured at the Dopamine receptor D3 by the inhibition of [3H]YM-09151-2 binding to human recombinant CCL 1.3 cells using unlabeled 7-OH-DPAT for nonspecific binding.
[8] = biological target: T1, 5-hydroxytryptamine receptor 2A; remark: listed apart in the source
Description: Binding affinity measured at the 5-hydroxytryptamine 2A receptor by the inhibition of [3H]ketanserin binding to rat cortex using unlabeled mianserin for nonspecific binding.

[9] = biological target: D(1A) dopamine receptor (Rattus norvegicus, UniProt P18901); assay: biochemical
Description: Binding affinity measured at the Dopamine receptor D1 by the inhibition of [3H]SCH-23390 binding to rat striatum using unlabeled apomorphine for nonspecific binding.

[10] = biological target: T3, Adrenergic receptor alpha-2 (Rattus norvegicus, UniProt P22086+P19328+P22909); assay: Binding affinity measured at the Alpha-2 adrenergic receptor by the inhibition of [3H]clonidine binding to rat cortex using unlabeled NAbitartrate for nonspecific binding.
T3 sequence (P22086 whole entry): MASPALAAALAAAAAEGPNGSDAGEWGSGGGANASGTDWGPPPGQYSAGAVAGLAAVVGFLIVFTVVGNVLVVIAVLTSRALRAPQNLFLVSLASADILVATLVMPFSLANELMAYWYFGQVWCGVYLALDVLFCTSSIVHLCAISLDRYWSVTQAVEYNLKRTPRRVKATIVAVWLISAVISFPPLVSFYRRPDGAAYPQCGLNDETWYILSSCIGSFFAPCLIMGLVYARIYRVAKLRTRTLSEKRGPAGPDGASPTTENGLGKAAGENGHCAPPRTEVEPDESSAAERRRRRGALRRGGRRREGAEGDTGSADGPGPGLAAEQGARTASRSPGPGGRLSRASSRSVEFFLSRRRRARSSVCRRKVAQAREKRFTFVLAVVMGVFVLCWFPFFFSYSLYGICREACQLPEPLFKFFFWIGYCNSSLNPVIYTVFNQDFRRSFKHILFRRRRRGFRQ
T3 sequence (P19328 whole entry): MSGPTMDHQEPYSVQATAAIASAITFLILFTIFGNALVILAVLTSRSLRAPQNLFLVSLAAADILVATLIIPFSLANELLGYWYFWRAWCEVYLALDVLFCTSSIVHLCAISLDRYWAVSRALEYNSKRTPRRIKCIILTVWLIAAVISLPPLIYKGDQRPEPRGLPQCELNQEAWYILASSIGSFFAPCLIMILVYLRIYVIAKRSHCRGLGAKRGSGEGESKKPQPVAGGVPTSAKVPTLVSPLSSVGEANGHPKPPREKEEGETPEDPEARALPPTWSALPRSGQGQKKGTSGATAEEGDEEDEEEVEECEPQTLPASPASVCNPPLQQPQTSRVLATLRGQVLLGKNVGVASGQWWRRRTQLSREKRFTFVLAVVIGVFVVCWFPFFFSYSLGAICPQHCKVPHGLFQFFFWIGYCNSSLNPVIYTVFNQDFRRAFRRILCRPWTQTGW
T3 sequence (P22909 whole entry): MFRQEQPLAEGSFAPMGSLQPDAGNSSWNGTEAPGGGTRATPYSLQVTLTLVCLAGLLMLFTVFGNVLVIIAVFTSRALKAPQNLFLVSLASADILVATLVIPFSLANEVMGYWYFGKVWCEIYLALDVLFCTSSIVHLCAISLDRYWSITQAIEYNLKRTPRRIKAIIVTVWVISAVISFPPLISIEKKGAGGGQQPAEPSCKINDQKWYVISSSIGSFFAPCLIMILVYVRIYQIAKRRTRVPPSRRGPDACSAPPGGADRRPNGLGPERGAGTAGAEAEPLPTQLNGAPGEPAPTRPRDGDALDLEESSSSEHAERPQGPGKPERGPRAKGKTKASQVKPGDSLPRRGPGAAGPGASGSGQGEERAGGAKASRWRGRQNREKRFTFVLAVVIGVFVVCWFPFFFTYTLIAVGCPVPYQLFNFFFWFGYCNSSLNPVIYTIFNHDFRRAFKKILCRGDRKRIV

[11] = biological target: T4, D(4) dopamine receptor (Homo sapiens, UniProt P21917); assay: biochemical
T4 sequence (P21917 whole entry): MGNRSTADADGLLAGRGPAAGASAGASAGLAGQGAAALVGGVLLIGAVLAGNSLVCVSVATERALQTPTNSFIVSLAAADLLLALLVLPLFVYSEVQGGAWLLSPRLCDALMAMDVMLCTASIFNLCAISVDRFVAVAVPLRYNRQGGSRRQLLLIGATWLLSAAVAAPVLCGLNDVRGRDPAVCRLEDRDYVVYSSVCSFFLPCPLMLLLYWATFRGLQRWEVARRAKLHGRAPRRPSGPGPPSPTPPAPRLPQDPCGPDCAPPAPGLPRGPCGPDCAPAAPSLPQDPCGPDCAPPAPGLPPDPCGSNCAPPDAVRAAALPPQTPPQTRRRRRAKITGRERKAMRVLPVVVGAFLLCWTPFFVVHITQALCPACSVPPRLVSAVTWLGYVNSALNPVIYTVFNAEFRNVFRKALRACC

[12] = biological target: Adrenergic receptor beta (Rattus norvegicus, UniProt P18090+P10608+P26255); assay: Binding affinity measured at the Beta adrenergic receptor by the inhibition of [3H]DHA binding to rat cortex using unlabeled isoprenalin for nonspecific binding.
[13] = species: Rattus norvegicus; assay: Inhibition of apomorphine-induced stereotypy in rats.; type: functional
[14] = biological target: Muscarinic acetylcholine receptor; assay: Binding affinity measured at the Muscarinic acetylcholine receptor by the inhibition of [3H]-pyrilamine binding to guinea pig cerebellum using unlabeled Triprolidine for nonspecific binding.; type: tissue-based, Cavia porcellus
[15] = biological target: T5, 5-hydroxytryptamine receptor 1A (Rattus norvegicus, UniProt P19327); assay: Binding affinity measured at the 5-hydroxytryptamine 1A receptor by the inhibition of [3H]8-OH-DPAT binding to rat cortex using unlabeled buspirone for nonspecific binding.
T5 sequence (P19327 whole entry): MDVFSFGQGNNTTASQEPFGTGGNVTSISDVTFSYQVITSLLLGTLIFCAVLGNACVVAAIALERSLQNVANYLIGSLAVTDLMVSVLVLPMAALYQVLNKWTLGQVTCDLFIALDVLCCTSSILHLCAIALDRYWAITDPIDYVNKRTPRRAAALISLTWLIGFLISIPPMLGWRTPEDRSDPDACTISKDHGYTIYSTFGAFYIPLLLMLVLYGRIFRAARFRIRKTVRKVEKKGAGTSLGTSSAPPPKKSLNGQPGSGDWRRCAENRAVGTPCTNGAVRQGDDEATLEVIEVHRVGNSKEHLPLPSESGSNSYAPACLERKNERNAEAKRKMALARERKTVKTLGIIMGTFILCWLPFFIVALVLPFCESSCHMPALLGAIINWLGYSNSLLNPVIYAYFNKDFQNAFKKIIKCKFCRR

[16] = species: Mus musculus; assay: Inhibition of grooming-induced by SKF 38393 in mice.; type: functional
[17] = species: Mus musculus; assay: Inhibition of head twitches-induced by 2,5-dimethoxy-4-iodoamphetamine in mice.; type: functional
[18] = biological target: Beta-1 adrenergic receptor (Rattus norvegicus, UniProt P18090); assay: Binding affinity measured at the Beta-1 adrenergic receptor by the inhibition of [3H]DHA binding to rat cortex using unlabeled isoprenalin for nonspecific binding.
Beta-1 adrenergic receptor, sequence (P18090 whole entry): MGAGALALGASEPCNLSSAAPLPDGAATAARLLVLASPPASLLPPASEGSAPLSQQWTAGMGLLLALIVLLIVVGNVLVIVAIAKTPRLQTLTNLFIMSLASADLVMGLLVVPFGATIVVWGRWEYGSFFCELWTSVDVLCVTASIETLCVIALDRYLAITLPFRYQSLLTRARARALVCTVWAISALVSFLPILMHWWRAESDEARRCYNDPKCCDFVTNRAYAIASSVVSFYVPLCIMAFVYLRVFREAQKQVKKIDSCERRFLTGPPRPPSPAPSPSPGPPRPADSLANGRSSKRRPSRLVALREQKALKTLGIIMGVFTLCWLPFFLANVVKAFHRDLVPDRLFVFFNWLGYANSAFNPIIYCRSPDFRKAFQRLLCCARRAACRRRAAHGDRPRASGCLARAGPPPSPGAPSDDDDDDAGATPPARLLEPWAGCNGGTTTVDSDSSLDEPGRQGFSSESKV

T1 sequence (P14842 whole entry): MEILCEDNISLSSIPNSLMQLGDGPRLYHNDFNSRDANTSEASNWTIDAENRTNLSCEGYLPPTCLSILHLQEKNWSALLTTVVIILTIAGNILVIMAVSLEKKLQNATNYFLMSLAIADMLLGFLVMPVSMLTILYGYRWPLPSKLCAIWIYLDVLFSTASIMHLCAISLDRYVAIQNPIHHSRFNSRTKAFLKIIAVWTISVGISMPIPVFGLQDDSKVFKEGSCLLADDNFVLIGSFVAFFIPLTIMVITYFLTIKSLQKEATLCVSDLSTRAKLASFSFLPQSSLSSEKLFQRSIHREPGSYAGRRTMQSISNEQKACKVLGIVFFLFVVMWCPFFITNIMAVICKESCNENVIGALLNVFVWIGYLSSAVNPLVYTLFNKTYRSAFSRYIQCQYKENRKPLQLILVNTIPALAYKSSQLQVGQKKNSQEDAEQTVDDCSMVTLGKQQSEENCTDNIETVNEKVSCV
D(1A) dopamine receptor, sequence (P18901 whole entry): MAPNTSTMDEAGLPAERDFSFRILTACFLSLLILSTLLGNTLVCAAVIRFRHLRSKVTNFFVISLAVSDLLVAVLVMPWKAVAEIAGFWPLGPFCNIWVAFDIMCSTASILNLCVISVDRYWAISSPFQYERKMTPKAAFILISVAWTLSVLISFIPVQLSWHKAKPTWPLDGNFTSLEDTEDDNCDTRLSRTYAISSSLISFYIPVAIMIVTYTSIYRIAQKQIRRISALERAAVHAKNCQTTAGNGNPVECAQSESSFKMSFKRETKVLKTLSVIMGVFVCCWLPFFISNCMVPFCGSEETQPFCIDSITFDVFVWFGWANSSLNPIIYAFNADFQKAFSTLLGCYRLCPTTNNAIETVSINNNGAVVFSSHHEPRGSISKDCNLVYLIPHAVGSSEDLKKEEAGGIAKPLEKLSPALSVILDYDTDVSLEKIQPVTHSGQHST
D(3) dopamine receptor, sequence (P35462 whole entry): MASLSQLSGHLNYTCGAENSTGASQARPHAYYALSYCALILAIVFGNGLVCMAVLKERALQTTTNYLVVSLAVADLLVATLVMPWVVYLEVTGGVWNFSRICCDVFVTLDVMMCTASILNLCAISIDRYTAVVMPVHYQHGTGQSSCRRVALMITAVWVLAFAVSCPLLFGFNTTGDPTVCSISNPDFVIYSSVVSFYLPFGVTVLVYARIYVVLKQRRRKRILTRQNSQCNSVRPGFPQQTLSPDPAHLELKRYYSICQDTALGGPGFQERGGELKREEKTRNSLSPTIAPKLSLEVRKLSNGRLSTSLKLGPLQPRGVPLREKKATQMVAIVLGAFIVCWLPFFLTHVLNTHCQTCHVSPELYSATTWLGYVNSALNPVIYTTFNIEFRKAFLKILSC

IC50 [1] [nM] | SMILES | ED50 [2] [mg/kg] | ED50 [3] [mg/kg] | ED50 [5] [mg/kg] | ED50 [16] [mg/kg] | further results
25.3 | Cc1coc2cc(OCCCN3CCC(C(=O)c4ccc(F)cc4)CC3)ccc2c1=O |  |  |  |  | 
32.9 | O=C(c1ccc(F)cc1)C1CCN(CCCOc2ccc3c(=O)c(CO)coc3c2)CC1 | 13 | 2.02 |  |  | 
 | O=Cc1coc2cc(OCCCN3CCC(c4noc5cc(F)ccc45)CC3)ccc2c1=O |  | 3.32 |  |  | ED50 [4]: 15.9 mg/kg
1.4 | COCc1coc2cc(OCCCN3CCC(c4noc5cc(F)ccc45)CC3)ccc2c1=O | 6.88 | 0.27 |  |  | 
 | Cc1coc2cc(OCCCN3CCC(c4noc5cc(F)ccc45)CC3)ccc2c1=O | 2.85 | 0.4 |  |  | 
7.2 | O=c1cc(CO)oc2cc(OCCCN3CCC(c4noc5cc(F)ccc45)CC3)ccc12 | > 100 | 5.88 |  |  | 
 | O=C(O)c1coc2cc(OCCCN3CCC(c4noc5cc(F)ccc45)CC3)ccc2c1=O | > 50 | > 10 |  |  | 
8.6 | O=c1ccoc2cc(OCCCN3CCC(c4noc5cc(F)ccc45)CC3)ccc12 | 12.6 | 1.08 |  |  | 
6.2 | O=c1c(CO)coc2cc(OCCCN3CCC(c4noc5cc(F)ccc45)CC3)ccc12 [ABAPERIDONE] | 8.48 | 0.24 | 0.16 | 0.31 | Ki [6]: 2.4 nM; Ki [7]: 5.4 nM; Ki [8]: 1.9 nM; Ki [9]: 239 nM; Ki [10]: 169 nM; Ki [11]: 179 nM; Ki [12]: 2990 nM; ED50 [13]: 18.6 mg/kg; Ki [14]: 1130 nM; Ki [15]: 94 nM; ED50 [17]: 0.08 mg/kg
 | CN1CCN(C2=Nc3cc(Cl)ccc3Nc3ccccc32)CC1 [CLOZAPINE] | > 100 | 15.4 | 6.41 | 0.33 | ED50 [13]: > 100 mg/kg; ED50 [17]: 0.85 mg/kg
 | O=C(CCCN1CCC(O)(c2ccc(Cl)cc2)CC1)c1ccc(F)cc1 [HALOPERIDOL] | 2 | 0.31 | 0.3 | 0.28 | ED50 [17]: 0.56 mg/kg
 | Cc1nc2n(c(=O)c1CCN1CCC(c3noc4cc(F)ccc34)CC1)CCCC2 [RISPERIDONE] | 5 | 0.29 | 0.2 | 0.41 | Ki [18]: 22 µM; ED50 [13]: 9.7 mg/kg
